Test results as given in patent publication US20150313897A1, “METHODS FOR TREATING PARKINSON'S DISEASE” (Teva Pharmaceuticals International GmbH, priority 2009, published 2015).
“Also recorded” adds a separate entry of the source.

What was measured:
Type in all cases: in vivo, rhesus monkeys
MPTP treated monkeys [1] = experiment: Clinical Rating Scale (CRS) in primate model of Parkinson's Disease; details: NP201 at 1/9th of the oral dose; p<0.05
Procedure: In the MPTP Induction Phase, the monkeys were made bilaterally Parkinsonian with the use of MPTP. Monkeys received an initial dose of 0.3 mg/kg MPTP through a unilateral intracarotid injection and twice weekly injections of 0.3 mg/kg intravenous (i.v.) MPTP until they achieve a score of between 7.0 and 20.5 (e.g., 12 or higher) on the clinical rating scale with moderate bilateral Parkinsonism. Intravenous MPTP is administered at 3-5 day intervals. The actual cumulative number of i.v. MPTP injections is determined by the onset of stable bilateral symptoms. This protracted time course of i.v. MPTP administration allowed for development and evaluation of new Parkinsonian symptoms following each MPTP administration. […]
In the Experimentation Phase, the monkeys were assigned to one of three treatment groups: Group 1—oral ropinirole TID using the mean lowest effective dose determined in the Dose Finding Phase. […]
A Clinical Rating Scale for neurobehavioral examination was used to assess the clinical status of the monkeys under; normal, MPTP, and MPTP+treatment conditions, once per week, according to previously published protocols. […] Subjects were assessed once per week. All groups were assessed one hour after dosing. […] Occurrence of dyskinesia, psychological disturbances and vomiting were also recorded.

[2] = Ropinirole plasma levels (PK) after NP201 implant or TID oral ropinirole; details: oral ropinirole group relative to NP201
Procedure: (§1) In the Experimentation Phase, the monkeys were assigned to one of three treatment groups: Group 1—oral ropinirole TID using the mean lowest effective dose determined in the Dose Finding Phase. Group 2—NP201 releasing ropinirole at a dose of either approximately 1/9th or 1/18th of the total daily oral TID dose), e.g., for a single 1.00 mg/kg oral dose, the daily dose would be 3.00 mg/kg/day and the implant doses would then be 0.33 mg/kg/day or 0.17 mg/kg/day, respectively. Group 3—Control group will receive both a subcutaneous placebo implant and an oral placebo TID.
In order to collect Pharmacokinetic (“PK”) samples, monkeys were tranquilized with ketamine (7-10 mg/kg intramuscularly) in order to collect 1 cc of blood from the saphenous vein. Plasma samples were collected into appropriately labeled collection tubes. One cc blood samples were collected by catheter or venipuncture into EDTA collection tubes for ropinirole plasma concentrations by a validated HPLC with MS/MS detection. The plasma samples were frozen within two hours after collection and remained frozen until analyzed. PK Samples for the Dose Finding Phase (Oral dose) were drawn on days 1 and 14 at 60, 120, 180, 240 and 360 minutes after one oral dose of 1.0 mg/kg. PK Samples for the Experimentation Phase (NP201 implants) were drawn in all […] test groups in order to test the blood levels of ropinirole. […]

MPTP treated monkeys [3] = experiment: Activity monitoring system (AMS), 12-hour light/dark cycle
Procedure: as §1
The activity monitoring system (“AMS”) records a 12-hour light/dark cycle. Each monkey was fitted with a monkey jacket that contained an activity monitor (Actitrac 1M Systems, Baltimore, Md.) in the inside back pocket. This activity monitor measured motion along its vertical and horizontal axes digitizing acceleration signals at a 40 Hertz sampling rate and stored the average acceleration value calculated during each consecutive time interval. The number of pulses was expressed for a pre-selected time period (1 minute). Data was collected continuously in 1-minute bins for a period of to 14 days. At the end of the period, the monkeys were again tranquilized with ketamine (15 mg/kg, intramuscularly), the activity monitor was removed and interfaced with a computer, and the data was downloaded. The data was expressed as the mean activity of each 12-hour light/dark cycle.

## CCCN(CCC)CCc1cccc2c1CC(=O)N2 [oral ropinirole, 4-(2-di-n-propylaminoethyl)-2(3H)-indolone]
MPTP treated monkeys [1]
  CRS measure versus placebo: statistically superior to placebo
[2]
  variability of plasma levels: much greater variability
MPTP treated monkeys [3]; days 10-42, versus pre-MPTP baseline and placebo, no active oral agent given on weekend days
  activity levels, Sat-Sun (weekend): resembled placebo with reduced activity relative to baseline; also recorded: indistinguishable from placebo
MPTP treated monkeys [3]; days 10-42, versus pre-MPTP baseline, oral: peak about 1 hour after each dose during wake cycle
  activity levels, Wed-Fri: exceeded baseline, pre-MPTP levels
MPTP treated monkeys [3]; versus pre-MPTP baseline / healthy monkeys
  overall pattern of activity (12-hour light/dark cycles): alternating periods of very high activity interspersed with normal levels; also recorded: alternating periods of very high and normal activity
